Experimental data as given in patent US7041446B2, “Labeled protein and its producing method, labeling compound to be used in the method, and method for analyzing function of genes” (priority 1998, dated 2006).

Experiments:
[1] = system: C-terminal of thioredoxin; assay: Labeling of translated protein in cell-free transcription-translation system of E. coli; format: biochemical; details: for linkage to the C-terminal of thioredoxin: cell-free transcription-translation system of E. coli
Experimental: rCpPur (30 pmol) was phosphorylated by T4 polynucleotide kinase (10 units) in the presence of γ-^33P-ATP (9.25 MBq). The reaction was carried out under the condition of 37° C. for 1 hour. After the reaction was over, the reaction mixture was heated at 70° C. for 20 minutes to inactivate the enzyme.
Labeling reaction was carried out using a cell-free transcription-translation system of E. coli. The reaction mixture (25 μl) of the cell-free transcription-translation system of E. coli had the following composition: 7.5 μl of E. coli S30 extract (containing T7 RNA polymerase), 10 μl of E. coli S30 premix, 2.5 μl of an amino acid mixed solution, 1 μl of an RNase inhibitor, 1 μg of plasmid (thioredoxin), and 0.0003 to 0.3 μM (final concentration) of the ^33P-rCpPur described above. As a control, the reaction was carried out also in a system containing ^35S-methionine (1.2 μM). After the reaction was carried out at 37° C. for 30 minutes, precipitation was performed with acetone. A buffer solution (pH 8) containing 1% SDS was added to the precipitate, and then heated at 90° C. for 5 minutes for dissolution, separated by SDS-15% polyacrylamide gel electrophoresis, and analyzed using an image analyzer (Fuji Photo Film, BAS 2000). […] When the concentration of ^33P-rCpPur was 0.3 μM, a distinct band corresponding to the full-length thioredoxin was detected at the position of apparent molecular weight of 12 kDa. […] The band with an apparent molecular weight of 12 kDa was detected even when labeled with ^35S-methionine (final concentration: 1.2 μM) (FIG. 3).
Fluorescent labeling of a protein by a cell-free transcription-translation system of E. coli in the presence of Fluorpur and Fluorthiopur was examined. […] After the reaction was carried out at 37° C. for 30 minutes, precipitation was performed with acetone. A buffer solution (pH 8) containing 1% SDS was added to the precipitate, then heated at 90° C. for 5 minutes for dissolution, separated by SDS-15% polyacrylamide gel electrophoresis, and detected for fluorescent bands of protein using a fluorescent gel scanner (Fluor Imager 585, Molecular Dynamics). Measurement was made at an excitation wavelength of 488 nm and an emission wavelength of 520 nm. FIGS. 4A, 4B and 4C show the results of fluorescent labeling of thioredoxin with Fluorpur and Fluorthiopur. For both Fluorpur and Fluorthiopur in a concentration ranges of 0.36 to 1.44 μM, fluorescent bands were detected at the position of apparent molecular weight of 12 kDa indicated by an arrow (FIGS. 4A and 4B).

[2] = system: protein synthesis of bacteria; details: cited from earlier work
[3] = system: protein synthesis of animal cells; details: cited from earlier work
[4] = system: full-length protein of thioredoxin; assay: Labeling of thioredoxin in cell-free transcription-translation system containing wheat germ lysate; format: biochemical, E. coli
Experimental: (§1) The fluorescent labeling of the full-length protein of thioredoxin with Fluorpur and Fluorthiopur was confirmed also in a cell-free transcription-translation system containing nuclease treated rabbit reticulocyte lysate or wheat germ lysate. The respective optimal concentrations of Fluorpur and Fluorthiopur necessary for fluorescent labeling were 0.3 to 50 μM in the system containing nuclease treated rabbit reticulocyte lysate and 10 to 50 μM in the case of the system containing wheat germ lysate.

[5] = system: full-length protein of thioredoxin; assay: Labeling of thioredoxin in cell-free transcription-translation system containing nuclease treated rabbit reticulocyte lysate; format: biochemical, E. coli
Experimental: as §1

With `CSCC[C@H](N)C(=O)O` [^35S-methionine, reference compound] the “band with an apparent molecular weight of 12 kDa” value ([1]; control label, final concentration 1.2 μM) was “detected”.

For `COc1ccc(C[C@H](N)C(=O)N[C@H]2[C@@H](O)[C@H](n3cnc4c(N(C)C)ncnc43)O[C@@H]2CO)cc1` [puromycin, 3′-[α-amino-p-methoxyhydro-cinnamamido]-3′-deoxy-N,N′-dimethyladenosine], the “inhibition of protein synthesis” value [2] is listed as “inhibit the protein synthesis” and the “inhibition of protein synthesis” value [3] is listed as “inhibit the protein synthesis”.

With “fluoresceinylphosphopuromycin [Fluorpur]” the “linkage to the C-terminal of thioredoxin” value [1] was “linked to the C-terminal of the full-length protein”, the “labeling of the full-length protein of thioredoxin” value (“labeling” below) [4] was “can be confirmed” and the “labeling” value [5] was “can be confirmed”.

With “fluoresceinylthiophophopuromycin [Fluorthiopur]” the “linkage to the C-terminal of thioredoxin” value [1] was “linked to the C-terminal of the full-length protein”, the “incorporation compared with Fluorpur” value ([1]; fluorescent labeling of thioredoxin, E. coli system) was “more or less efficiently” and the “labeling” value [4] was “can be confirmed”. For the same compound, the “labeling” value [5] was “can be confirmed”.
